Values after ≈ are worked out from the molar mass of the structure shown.
Tested on: HeLa
Experiment: Cytotoxicity against human HeLa cells after 3 days by MTT assay
Type: functional, cell-based
Conditions: 72 h

Row | Compound | IC50 [µg/mL]
1 | CO[C@H]1c2c([nH]c3c4c(ccc23)OC(C)(C)C=C4)C(C)(C)[C@@H]2C[C@]34CCCN3C(=O)[C@]12NC4=O [NOTOAMIDE F] | > 50
2 | CC1(C)C=Cc2c(ccc3c4c([nH]c23)C(C)(C)[C@@H]2C[C@]35CCCN3C(=O)[C@]2(NC5=O)C4=O)O1 [NOTOAMIDE I] | 21 (≈ 47.1 µM)
3 | C=CC(C)(C)[C@]1(C[C@@H]2NC(=O)[C@@H]3CCCN3C2=O)C(=O)Nc2cc(O)ccc21 [NOTOAMIDE J] | > 50
4 | C=CC(C)(C)[C@@]12Nc3c(ccc4c3C=CC(C)(C)O4)[C@]1(O)C[C@]1(O)C(=O)N3CCC[C@H]3C(=O)N21 [NOTOAMIDE K] | > 50

— ChEMBL document CHEMBL1139319, “Notoamides F-K, prenylated indole alkaloids isolated from a marine-derived Aspergillus sp” (J Nat Prod, 2008)
